Results on 14 compounds are retold here after US10065965B2, “Imidazo[1,2-B][1,2,4]triazine derivatives as antiparasitic agents” (GlaxoSmithKline Intellectual Property Development Limited, priority 2015, dated 2018).

SMILES strings stand for the structures. ≈ marks a conversion by molar mass, not a printed value. Where only a bound is given, the exact number is not on record here.

The test system of one data set is Leishmania donovani. Briefly: Assay 1 intramacrophage Leishmania donovani assay (potency readout). The class given is cell-based. The conditions noted are these: amastigotes in PMA-treated THP-1 macrophages, 96 h, average number of amastigotes per cell, minimum threshold 4.3, read-out: pEC50 value against Leishmania donovani (converted). The method, then: (§1) The intramacrophage Leishmania assay was performed using a modified version of the method described in De Rycker et al. (Antimicrob Agents Chemother. 2013 July; 57(7):2913-22. Comparison of a high-throughput high-content intracellular Leishmania donovani assay with an axenic amastigote assay. De Rycker M, Hallyburton I, Thomas J, Campbell L, Wyllie S, Joshi D, Cameron S, Gilbert I H, Wyatt P G, Frearson J A, Fairlamb A H, Gray D W.). Procedure: 350 nl of compound was pre-dispensed into 384 well sterile intermediary plates. For single point screening, amphotericin B was added to all wells of column 24 as a positive control (final concentration 2 μM) and DMSO to column 23. For potency determinations, ten-point, one in three dilution curves were created with the highest concentration being 50 μM and on each plate a control curve of amphotericin B was included. Controls were as follows: columns 11 and 12: DMSO, columns 23 and 24: amphotericin B (final concentration 2 μM). To the intermediary plates, 35 μl of THP-1 media was added and plates were shaken for >5 min to ensure complete mixing. THP-1 cells (8,000 per well, 50 μl) were plated into black clear-bottom 384 well plates (Corning) in presence of 20 nM PMA. After 20 min at RT, the plates were incubated at 37° C. under 5% CO2 in a humidified incubator for 75 h. The cells were then washed with […] sterile phosphate buffered saline (PBS) supplemented with 1 mM CaCl2, 0.5 mM MgCl2, 0.1% (w/v) bovine serum albumin (PBS-A) and amastigotes were added to all wells at a multiplicity of infection of 5 (40,000 amastigotes per well). After 40 min at RT, plates were returned to the incubator. Amastigotes were incubated in the presence of THP-1 macrophages for 16 h. Any remaining extracellular amastigotes were subsequently removed with an overflow wash of 1 mL PBS-A per well (wash buffer is being aspirated from the top of the well as it is being dispensed) followed by addition of 25 μl of the compound pre-dilutions using a Fluidx Ipette-pro pipetting station. The final dilution of each compound was 200-fold. Plates were incubated for 96 h and then washed (250 μl PBS-A) and fixed (4% (v/v) formaldehyde-PBS, 30 min, RT). After fixation, the wells were washed with 250 μl PBS, stained (10 μg/mL DAPI, 0.4 μg mL-1 HCS Cellmask Deep Red in PBS+0.1% (v/v) Triton X-100, 30 min, RT) and washed with 250 μl PBS. Finally, PBS+0.05% (v/v) thimerosal was added to the wells, the plates were sealed and imaged on a high-content microscope (GE IN Cell 2000) using a 10× objective. Image analysis was carried out with GE IN Cell Analyzer 1000 Workstation using the “Multi Target Analysis” module. Settings for segmentation were as follows: nuclei: minimum area: 142.384 μm2, sensitivity: 81, method: top-hat; cells: characteristic area: 2500 μm2, sensitivity: 60, method: multiscale top-hat; organelles (amastigotes): granule size 1-3, 3 scales, sensitivity: 90, detection in entire cell. For each well, i) THP-1 cell count (cytotoxicity readout) and ii) average number of amastigotes per cell (potency readout) were calculated, both in terms of pEC50 values.

For data set [1], the system named is Trypanosoma cruzi. The data set can be described thus: Assay 6 Trypanosoma cruzi intracellular assay (infected H9C2 cells). As to conditions: H9c2, in Rattus norvegicus, 72 h, infected H9C2 rat cardiomyocytes, read-out: pEC50 value against Trypanosoma cruzi (converted). The data set is classed as cell-based. The method, then:
Compounds were dispensed into black 384-well assay plates (Greiner) by acoustic dispensing (LabCyte ECHO). For potency determinations, eleven-point, one in three dilution curves were generated, with a top concentration of 50 μM. H9C2 rat cardiomyocytes cells were dispensed in T225 tissue culture flasks and after 4 hours they were infected during 18 hours with T. cruzi trypomastigotes in the same T225 tissue culture flasks at a multiplicity of infection of 1. Next, any remaining free trypomastigotes were washed away with PBS and the infected H9C2 cells were harvested by trypsinisation. The infected H9C2 cells were then plated into 384-well plates containing the compounds to be tested, at 2500 cells per well in DMEM media with 2% FBS, 1% Penicillin/Streptomocin, 2 mM L-Glutamine, 1 mM Na Pyruvate and 25 mM HEPES. After 72 h incubation at 37° C. in presence of 5% CO2, the plates were fixed and stained with 4% formaldehyde and 2 μM Draq5 for 3 hours at room temperature. The plates were imaged on a Perkin Elmer Opera high-content imaging system using a 20× air objective. Images were analysed using the Acapella building blocks system (Perkin Elmer). The image analysis algorithm first identified the H9C2 nuclei followed by demarcation of the cytoplasm and identification of intracellular amastigotes. This algorithm reported mean number of parasites per H9C2 cell, the percentage of infected H9C2 cells and the total number of H9C2 cells.

The nature of data set [2]: Assay 1 intramacrophage Leishmania donovani assay, THP-1 cell count (cytotoxicity readout). The class given is cell-based. The conditions noted are these: human, minimum threshold 4.3, read-out: cytotoxicity against THP-1 cells, pEC50 value (converted). The method, then: as §1
Data set [3] is described as follows: Assay 4 solubility assay, ChemiLuminescent Nitrogen Detection (CLND). The class given is physicochemical. As to conditions: phosphate buffered saline, pH 7.4, aqueous buffer, kinetic from dmso stock, pH 7.4 PBS, from 10 mM DMSO stock, 1 h at room temperature. The method, then: A 10 mM DMSO stock solution of the compound was prepared. Solvents and Buffers Organic solvents of HPLC grade were used. Ultra pure water (Milli-Q grade) was used. Buffers were prepared with ultra pure water and filtered using 0.45μ cameo filters. Aqueous Buffer Solution: Phosphate Buffer Saline (PBS) @ pH 7.4 was prepared from Sigma dry powder packs, P-3813. Each one was diluted to 1 liter with deionised water. The pH was checked before the solution was used II. Procedures. • a) DMSO concentration was measured. DMSO blanks and ondansetron and caffeine standards were added to the plate (column 12, A, B, C, & D for the blanks and E, F, G, & H for the standards). Plates were covered with foil. When the UV and CLND detectors baselines appeared to be stable, the CLND was zeroed. • b) Once DMSO concentration measurements were complete, a filtration plate was prepared from each parent plate by diluting 5 μl of the 10 mM DMSO stock solution to […] with pH7.4 PBS. • c) After the plates were prepared, they were covered with a plate lid and left to incubate for 1 h at room temperature. • d) Sample was filtered using MILLIPORE MultiScreen Solubility (MSSLBPC10) Filtration Plates, to NUNC V well plates. The filter plate was removed and the NUNC plate was sealed with a power seal plate seal. • e) HPLC/CLND instruments were set up and left to equilibrate. Mobile phases (MeOH:H2O 1:1, flow rate: 0.2 ml/min, sensitivity z10, Gain High). The samples were run. • f) The assay curve fit was done by linear regression and solubility values were reported in μM.

Data set [4] has as its system Trypanosoma cruzi. Briefly: Assay 2 Trypanosoma cruzi intracellular assay (infected Vero cells). The class given is cell-based. The conditions noted are these: 72 h, read-out: pEC50 value against Trypanosoma cruzi (converted). The method, then: Compounds were dispensed into black 384-well assay plates (Corning) by acoustic dispensing (LabCyte ECHO). For potency determinations, ten-point one in three dilution curves were generated, with a top concentration of 50 μM. Vero cells were infected overnight with T. cruzi trypomastigotes in T225 tissue culture flasks at a multiplicity of infection of 5. Next, any remaining free trypomastigotes were washed away with serum free MEM media and the infected Vero cells were harvested by trypsinisation. The infected Vero cells were then plated into 384-well plates containing the compounds to be tested, at 4000 cells per well in MEM media with 1% FCS. After 72 h incubation at 37° C. in presence of 5% CO2, the plates were fixed with 4% formaldehyde for 20 minutes at room temperature and stained with 5 μg/ml Hoechst 33342. The plates were imaged on a Perkin Elmer Operetta high-content imaging system using a 20× objective. Images were analysed using the Columbus system (Perkin Elmer). The image analysis algorithm first identified the Vero nuclei followed by demarcation of the cytoplasm and identification of intracellular amastigotes. This algorithm reported mean number of parasites per Vero cell and total number of Vero cells.

Take `CCOC(=O)Nc1ccc(F)c(-c2cn3nc(N4CCOCC4)cnc3n2)c1` [Example 52, ethyl (4-fluoro-3-(2-morpholinoimidazo [1,2-b][1,2,4]triazin-6-yl)phenyl)carbamate]: the EC50 in the data set with Leishmania donovani is > 50.1 µM; in the data set on Trypanosoma cruzi [1], 5.01 to 631 nM.
For orientation: solubility means the concentration that dissolves in the medium under given conditions. Take `O=C(Nc1ccc(F)c(-c2cn3nc(-c4cccc(CN5CCOCC5)c4)cnc3n2)c1)N1CCCC1` [Example 19, N-(4-fluoro-3-(2-(3-(morpholinomethyl)phenyl)imidazo[1,2-b] [1,2,4]triazin-6-yl)phenyl)pyrrolidine-1-carboxamide]: the EC50 at 96 h in data set [2] is 3.98 to 15.8 µM. Further, the solubility at 1 h in data set [3] lay within 1 to 6 µM (≈ 0.502 to 3.01 µg/mL). Moreover, the EC50 in the data set with Trypanosoma cruzi [1] is 5.01 to 631 nM.
Taken in the same sequence, the figures for `O=C(Nc1ccc(F)c(-c2cn3nc(-c4ccc(CN5CCOCC5)cc4)cnc3n2)c1)N1CCCC1` [Example 18, N-(4-fluoro-3-(2-(4-(morpholinomethyl)phenyl)imidazo[1,2-b] [1,2,4]triazin-6-yl)phenyl)pyrrolidine-1-carboxamide] were 3.98 to 15.8 µM, 1 to 6 µM (≈ 0.502 to 3.01 µg/mL) and 5.01 to 631 nM.
For the compound `O=C(Nc1ccc(F)c(-c2cn3nccnc3n2)c1)N1CCCC1` [Example 8, N-(4-fluoro-3-(imidazo[1,2-b][1,2,4]triazin-6-yl)phenyl)pyrrolidine-1-carboxamide], the EC50 in the data set with Trypanosoma cruzi [4] is 20 to 251 nM.
As to `C[C@@H]1CN(c2cnc3nc(-c4cc(NC(=O)N5CCCC5)ccc4F)cn3n2)C[C@H](C)O1` (single isomer, unassigned) [Example 6], the EC50 is 20 to 251 nM in the data set on Trypanosoma cruzi [4] and 5.01 to 631 nM in the data set on Trypanosoma cruzi [1]. Further, the solubility at 1 h in data set [3] lay in the range of 10 to 83 µM (≈ 4.39 to 36.5 µg/mL).
As for `COc1ccc(CNc2cnc3nc(-c4cc(NC(=O)N5CCCC5)ccc4F)cn3n2)cc1` [Example 50, N-(4-fluoro-3-(2-((4-methoxybenzyl)amino)imidazo[1,2-b][1,2,4]triazin-6-yl)phenyl) pyrrolidine-1-carboxamide], in data set [2], the EC50 at 96 h is 3.98 to 15.8 µM. For the same compound, in the data set on Trypanosoma cruzi [1], the EC50 was 5.01 to 631 nM.
As for `CN1CCN(Cc2ccc(-c3cnc4nc(-c5cc(NC(=O)N6CCCC6)ccc5F)cn4n3)cc2)CC1` [Example 59, N-(4-fluoro-3-(2-(4-((4-methylpiperazin-1-yl)methyl)phenyl)imidazo [1,2-b][1,2,4]triazin-6-yl)phenyl)pyrrolidine-1-carboxamide], the EC50 at 96 h in data set [2] is 3.98 to 15.8 µM.
For the compound `CC(C)Cc1cnc2nc(-c3cc(NC(=O)N4CCCC4)ccc3F)cn2n1` [Example 36, N-(4-fluoro-3-(2-isobutyl-imidazo[1,2-b][1,2,4]triazin-6-yl)phenyl) pyrrolidine-1-carboxamide], in data set [3], the solubility at 1 h was in the range of 10 to 83 µM (≈ 3.82 to 31.7 µg/mL). Further, the EC50 in the data set with Trypanosoma cruzi [1] is 5.01 to 631 nM.
Take `O=C(Nc1ccc(F)c(-c2cn3nc(-c4ccc(O)cc4)cnc3n2)c1)N1CCCC1` [Example 51, N-(4-fluoro-3-(2-(4-hydroxyphenyl)imidazo [1,2-b][1,2,4]triazin-6-yl)phenyl)pyrrolidine-1-carboxamide]: the EC50 at 96 h in data set [2] was 3.98 to 15.8 µM. Also, the EC50 with Trypanosoma cruzi [1] is 5.01 to 631 nM.
`O=C(Nc1ccc(Cl)c(-c2cn3nc(N4CCOCC4)cnc3n2)c1)N1CCCC1` [Example 43, N-(4-chloro-3-(2-morpholinoimidazo[1,2-b][1,2,4]triazin-6-yl)phenyl)pyrrolidine-1-carboxamide]: in data set [3], the solubility at 1 h is 10 to 83 µM (≈ 4.28 to 35.5 µg/mL). Moreover, the EC50 in the data set with Trypanosoma cruzi [1] is 5.01 to 631 nM.
For `CC(C)c1cnc2nc(-c3cc(NC(=O)N4CCCC4)ccc3F)cn2n1` [Example 13, N-(4-fluoro-3-(2-isopropylimidazo [1,2-b][1,2,4]triazin-6-yl)phenyl)pyrrolidine-1-carboxamide], in that order: 100 to 416 µM (≈ 36.8 to 153 µg/mL) and 5.01 to 631 nM.
Taken in the same sequence, the figures for `O=C(Nc1ccc(F)c(-c2cn3nc(N4CCOCC4)cnc3n2)c1)N1CCC1` [Example 42, N-(4-fluoro-3-(2-morpholinoimidazo [1,2-b][1,2,4]triazin-6-yl)phenyl)azetidine-1-carboxamide] were 100 to 416 µM (≈ 39.7 to 165 µg/mL) and 5.01 to 631 nM.
In data set [3], `O=C(Nc1cnc2nc(-c3cc(NC(=O)N4CCCC4)ccc3F)cn2n1)C1CC1` [Example 58, N-(3-(2-(cyclopropane-carboxamido)imidazo [1,2-b][1,2,4]triazin-6-yl)-4-fluorophenyl) pyrrolidine-1-carboxamide] yielded a solubility at 1 h of 10 to 83 µM (≈ 4.09 to 34 µg/mL). Besides, in the data set with Trypanosoma cruzi [1], the EC50 was 5.01 to 631 nM.
For `O=C(Nc1ccc(F)c(-c2cn3nc(CCCO)cnc3n2)c1)N1CCCC1` [Example 25, N-(4-fluoro-3-(2-(3-hydroxypropyl)imidazo [1,2-b][1,2,4]triazin-6-yl)phenyl)pyrrolidine-1-carboxamide], in that order: 100 to 416 µM (≈ 38.4 to 160 µg/mL) and 5.01 to 631 nM.
